{
  "source": "patent US6323204A",
  "about": "“Methods for using (2-imidazolin-2-ylamino) quinoxaline derivatives” (Allergan, priority 1998, dated 2001)",
  "key": {"[1]": {"assay": "rat activity test (central nervous system anesthetization activity)", "format": "in vivo", "conditions": "iv, read-out: ID50 Rat Activity", "method": "(§1) Two (2) animal models were utilized to determine the central nervous system anesthetization activity of the quinoxaline derivative produced in Example 2.\n(§2) The first of these animal models is identified generally as the mouse hexobarbital sleep time test. Briefly, the compound in question (in a dosage range of between 10 and 500 micrograms/kg, i.v.) and the barbiturate hexobarbital (75 mg/kg, i.p) are coadministered to mice weighing 20 to 22 grams. […] Sleep time is assessed as the time associated with the loss of the animal's reflex to right itself when placed on its back. The ED15 is estimated from dose-response data as the effective dose which potentiates sleep time by 15 minutes. The second animal model used is identified generally as the rat activity test. Briefly, rats weighing 140 to 160 grams are placed into an environmentally isolated activity monitor five (5) minutes following administration of the compound in question (in the range of 1 to 1000 micrograms/kg, i.v.). Horizontal activity, measured in counts is determined for five (5) minutes.\n(§3) The final quinoxaline derivative produced in Example 2 was tested using both of the above-noted animal models. For comparison purposes, clonidine and its hydrophilic analog, p-amino-clonidine, were also tested using these animal models."}, "[2]": {"conditions": "in words; stated as known; cited from earlier work"}, "[3]": {"assay": "mouse hexobarbital sleep time test (central nervous system anesthetization activity)", "format": "in vivo", "conditions": "i.v., with hexobarbital 75 mg/kg i.p., dose which potentiates sleep time by 15 minutes", "method": "as §1, §2, §3"}, "[4]": {"conditions": "in words", "method": "The final quinoxaline derivative produced in Example 2, that is 5-bromo-6-(2-imidazolin-2-ylamino)quinoxaline, was tested for central nervous system anesthetization activity as follows.\nas §1, §2\nThe final quinoxaline derivative produced in Example 2 was tested using both of the above-noted animal models. […]"}},
  "note": "Where two headings read alike, the source gives them in different places.",
  "data": [
    {"compound": "Clc1cccc(Cl)c1N=C1NCCN1", "note": "[Clonidine]", "values": [
      {"measurement": "ED50", "setting": "[1]; Rattus norvegicus", "value": 0.026, "unit": "mg/kg"},
      {"measurement": "anesthetization activity (known)", "setting": "[2]", "value": "significant anesthetization activity"},
      {"measurement": "ED15 Mouse Sleep-Time", "setting": "[3]", "value": 0.075, "unit": "mg/kg"}
    ]},
    {"compound": "Brc1c(NC2=NCCN2)ccc2nccnc12", "note": "[Example 2, 5-bromo-6-(2-imidazolin-2-ylamino) quinoxaline]", "values": [
      {"measurement": "ED50", "setting": "[1]; Rattus norvegicus", "value": 0.077, "unit": "mg/kg"},
      {"measurement": "central nervous system anesthetization activity compared with the hydrophilic analog of clonidine (p-amino clonidine)", "setting": "[4]", "value": "substantially more of such activity"},
      {"measurement": "central nervous system anesthetization activity", "setting": "[4]; mouse sleep time and rat activity tests", "value": "substantial central nervous system anesthetization activity"},
      {"measurement": "ED15 Mouse Sleep-Time", "setting": "[3]", "value": 0.116, "unit": "mg/kg"}
    ]},
    {"compound": "Nc1cc(Cl)c(NC2=NCCN2)c(Cl)c1", "note": "[p-Amino Clonidine]", "values": [
      {"measurement": "ED50", "setting": "[1]; rat, i.v., dose which decreases horizontal activity by 50%", "value": 0.302, "unit": "mg/kg"},
      {"measurement": "ED15 Mouse Sleep-Time", "setting": "[3]", "value": "> 0.5", "unit": "mg/kg"}
    ]}
  ]
}
